Reference: patent publication US12077586B2, “Bispecific antibodies for use in the treatment of hematological malignancies” (LAVA THERAPEUTICS N.V., priority 2018, dated 2024)

What was measured:
Jeko-1 cells = test: Cytotoxicity assay with Vγ9Vδ2-T cell lines, Jeko-1 target cells; format: cell-based, human; settings: 2 hours pretreatment (50 μM pamidronate or 25 μM mevastatin), 1:2; for 1D7-5C8-induced lysis of pretreated Jeko-1 cells: 100 nM 1D7-5C8, 6 hours; for Vγ9Vδ2-T cell-mediated lysis of pretreated Jeko-1 cells: no bispecific antibody, 6 hours
Protocol: Target cells were then cocultured overnight with Vγ9Vδ2-T cell lines in a 1:1 ratio unless otherwise indicated. Viability was measured using Mitotracker Orange (25-minute incubation at 37° C., M7510) and To-pro-3 (10-minute incubation at room temperature; T3605, both Thermo Fisher Scientific).
If indicated, target cells were pretreated with 25 μM mevastatin (M2537, Sigma-Aldrich), 50 μM aminobisphosphonates (pamidronate, #12J08RD, TEVA Pharmachemie, Haarlem, the Netherlands) or medium control for 2 hours.
If indicated, cells were cultured with the indicated concentrations of all-trans retinoic acid (ATRA; R2625, Sigma-Aldrich) for 48 hours unless otherwise indicated. ATRA was washed away prior to cytotoxicity assays.
If indicated, target cells were pre-incubated with 5 μg/mL anti-CD1d mAb (clone 51.1, 350304, Biolegend, San Diego, CA, USA) and/or 10 μg/mL anti-CD277 mAb (clone 103.2, Creative Biolabs, Shirley, NY, USA) for 10 minutes.

[1] = test system: CLL patient-derived Vγ9Vδ2-T cells; test: Activation, cytokine and degranulation assay with autologous CLL patient-derived Vγ9Vδ2-T cells; format: cell-based, human; settings: overnight culture of CLL PBMC; 1D7-5C8 50 nM
Text: (A-C) Activation of and cytokine production and degranulation by patient-derived Vγ9Vδ2-T cells. […] (D) Lysis of primary CLL cells by autologous Vγ9Vδ2-T cells. […] Live CLL cells were quantified by flow cytometry using counting beads (n=5). (E) Expansion of patient-derived Vγ9Vδ2-T cells. […] Percentage Vγ9Vδ2-T cells after 1 week (n=8). Data are presented as mean and SD. *P<0.05, **P<0.01, ***P<0.001. (A-D: one-way ANOVA followed by Dunnett's post hoc test compared to medium control; E: paired t-test).

[2] = target: T1, sulfatide-loaded CD1d tetramers (Homo sapiens, UniProt P15813); test: CD1d-tetramer binding on Jurkat-Vδ1 cells; settings: ratio VHH:CD1d of ~4:1; tetramer 2 μg/ml
T1 construct: made in house
Protocol: (§1) FIG. 2. Vδ1-sulf-CD1d interaction is prevented by anti-CD1d VHH 1D12 and reduced by 1D22. Endogenous or sulfatide loaded CD1d-PE tetramers were incubated with either PBS (control), 1D12 or 1D22 (4:1VHH:CD1d ratio) after which tetramers were used to stain Jurkat-Vδ1 cells (final concentration tetramer 2 μg/ml) in combination with CD3-APC. Tetramer binding is prevented by 1D12 and reduced by 1D22 (A). C1R-CD1d cells were incubated with DMSO controls or sulfatide (25 μg/ml) after which medium or anti-CD1d VHH were added at 1000 or 100 nM and incubated for 30 min. Next Jurkat-Vδ1 cells were added and the co-culture was incubated for an additional 24 h after which CD69 expression was determined by flow cytometry (B). N=3.
To evaluate the effect of 1D12 and 1D22 on CD1d-tetramer binding on Jurkat-Vδ1 cells, endogenous or sulfatide-loaded CD1d-PE tetramers were incubated with either PBS (control), 1D12 or 1D22 (ratio VHH:CD1d of ˜4:1) for 30 min at room temperature after which tetramers were added to Jurkat-Vδ1 cells (final concentration tetramer 2 μg/ml) in combination with CD3-APC and incubated for 45 min at 4 degrees Celsius. Data was analyzed by flow cytometry.

iNKT cells = test: Modulation of iNKT cell activation (co-culture with Hela-CD1d cells); format: cell-based, human; settings: 24 hr co-culture with Hela-CD1d pulsed with vehicle or α-GalCer; 1D12 100 nM, 1D22 1000 nM
Text: FIG. 1. […] Representative dot-plots illustrating marked activation by 1D12 (A) or inhibition by 1D22 (B) of iNKT cells as depicted by CD25 expression, in addition to a marked increase (by 1D12) or decrease (by 1D22) in iNKT cell IFN-γ production (C and D). Data represent mean+SD of 3-4 individual experiments with iNKT obtained from different donors, **P<0.01, ***P<0.001, calculated with a one-way analysis of variance with Turkey's post hoc test.
To evaluate the capacity of 1D12 and 1D22 to stimulate or inhibit iNKT cell activation, 5×10^4 Hela-CD1d cells were seeded per well in a 96-well tissue culture plate and pulsed overnight with vehicle control (DMSO 0.01%) or 100 ng/ml α-GalCer. Cells were then washed with PBS and incubated with medium, or the anti-CD1d specific VHH for 1 hr at the indicated concentrations. Subsequently, 5×10^4 pure and resting iNKT were added to each well. After 24 hr, culture supernatants were analyzed for (induction or inhibition of) cytokine production by CBA (BD Biosciences) whereas iNKT cells were harvested and analyzed for CD25 expression by flow cytometry.

Jurkat-Vδ1 cells = test: Modulation of Jurkat-Vδ1 cell activation (C1R-CD1d co-culture, CD69); format: cell-based, human; settings: C1R-CD1d pulsed with 25 μg/ml sulfatide; VHH 100 nM or 1000 nM; 24 hr
Protocol: as §1
iNKT cells are known to dock over the extreme F′ pocket of CD1d which contrasts with sulfatide-CD1d restricted Vδ1-T cells that dock more towards the A′ pocket. We therefore evaluated the effect of 1D12 and 1D22 on sulfatide-CD1d restricted Vδ1-T cells. To evaluate the effect of 1D12 and 1D22 on Jurkat-Vδ1 cell activation, 1×10^5 C1R-CD1d cells were seeded per well in a 96-well tissue culture plate and pulsed for 2 hr with vehicle control (DMSO 0.05%) or 25 μg/ml sulfatide. […] After 24 hr Jurkat-Vδ1 cells were harvested and analysed for CD69 expression by flow cytometry. […]

CD1d = target: T2, CD1d (Homo sapiens, UniProt P15813); settings: previously characterized; cited from earlier work
T2 construct: expressed in transfected cells; host or cells: MM.1s (human multiple myeloma cell line) stably transduced with CD1d
T2 sequence (P15813 20-335): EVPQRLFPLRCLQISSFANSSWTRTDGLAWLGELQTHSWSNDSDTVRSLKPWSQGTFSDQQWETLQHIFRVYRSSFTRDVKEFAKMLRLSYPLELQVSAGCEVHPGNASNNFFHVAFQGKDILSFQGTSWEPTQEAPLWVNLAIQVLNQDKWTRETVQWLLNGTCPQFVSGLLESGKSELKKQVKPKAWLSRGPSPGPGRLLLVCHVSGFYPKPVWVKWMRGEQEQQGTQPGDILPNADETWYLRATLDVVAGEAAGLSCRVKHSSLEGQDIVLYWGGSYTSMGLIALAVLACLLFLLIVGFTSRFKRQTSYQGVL
T2 sequence (P61769 21-119 partner): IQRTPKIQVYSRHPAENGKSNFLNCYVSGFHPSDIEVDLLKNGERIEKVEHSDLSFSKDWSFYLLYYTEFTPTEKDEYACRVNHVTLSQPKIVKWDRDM

T1 sequence (P15813 20-301 limits assumed): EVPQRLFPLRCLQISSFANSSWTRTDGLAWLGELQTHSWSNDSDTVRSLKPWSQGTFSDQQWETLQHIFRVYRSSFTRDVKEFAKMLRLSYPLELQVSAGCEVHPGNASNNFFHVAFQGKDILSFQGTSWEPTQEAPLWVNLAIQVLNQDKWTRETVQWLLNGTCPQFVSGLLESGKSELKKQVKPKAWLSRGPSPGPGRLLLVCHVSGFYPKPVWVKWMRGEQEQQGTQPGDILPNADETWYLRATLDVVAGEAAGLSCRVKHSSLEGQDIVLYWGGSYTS
T1 sequence (P61769 21-119 partner): as the sequence (P61769 21-119 partner) above

CC[C@H](C)C(=O)O[C@H]1CCC=C2C=C[C@H](C)[C@H](CC[C@@H]3C[C@@H](O)CC(=O)O3)[C@H]21 [mevastatin, reference compound]
1D7-5C8-induced lysis of pretreated Jeko-1 cells (Jeko-1 cells): decreased bispecific antibody 1D7-5C8-induced lysis | Vγ9Vδ2-T cell-mediated lysis of pretreated Jeko-1 cells (Jeko-1 cells): led to a reduction in lysis

NCCC(O)(P(=O)(O)O)P(=O)(O)O [pamidronate, reference compound]
1D7-5C8-induced lysis of pretreated Jeko-1 cells (Jeko-1 cells): led to an increase in bispecific antibody 1D7-5C8-induced lysis of Jeko-1 cells | Vγ9Vδ2-T cell-mediated lysis of pretreated Jeko-1 cells (Jeko-1 cells): more sensitive to Vγ9Vδ2-T cell-mediated cytotoxicity | Upregulation of activation marker CD25 on patient Vγ9Vδ2-T cells [1]: 20.5 fold

B1: 1D22: anti-CD1d VHH, SEQ ID NO: 84 (protein)
VHH: QVQLVESGGGLVQAGGSLRLSCAASGSIFSINAMGAIRWSGESPYYADSVKGVISSSGSTNYADSVKGRFTISRDNAKNTAYLQMNSLKVEDTAVYYCAAHVAGFDEYNYWGQGTQVTVSS
modifications: antibody sequence
Binding of sulfatide-loaded CD1d tetramers to Jurkat-Vδ1 cells [2]: only a limited impact | iNKT cell activation (CD25 expression) and cytokine production (iNKT cells): completely blocked iNKT cell activation and cytokine production | Jurkat-Vδ1 cell activation (CD69 expression) (Jurkat-Vδ1 cells): only a limited impact on expression of the activation marker CD69

B2: 1D7: CD1d-specific VHH, SEQ ID NO: 70 (protein)
VHH: EVQLVESGGGLVQAGGSLRLSCAASVSSFSSYTMGTIRTGGSTNYADSVKGGIRWDDENPYYADSVKGRFTISRDNAKNTLYLQMNSLKPEDTANYYCAARLVPPGIPFERTLENMRYWGKGTLVTVSS
modifications: antibody sequence
Affinity for CD1d (CD1d): high affinity for CD1d
